Measured values taken from patent publication US7534426B2, “Glutenase enzyme assays” (The Board of Trustees of the Leland Stanford Junior …, priority 2004, dated 2009).
Where two headings read alike, the source gives them in different places. Ends that are not written are not given here.

Experiments:
[1] = In vitro digestion of gliadin peptides with gastric and pancreatic enzymes (PTCtCE); format: in vitro ADME; conditions: pH 7.04
Protocol: (§1) In vitro Digestion of Gliadin Peptides. The in vitro digestion of each peptide was performed as follows: 75 μM (final concentration) of peptide was combined with 32 μL of 0.03 M HCl, pepsin (1:100 w pepsin/w peptide) and water to give a volume of 104 μL. The reaction was carried out for 30 minutes at 37° C. and was stopped by the addition of 40 μL of 1M sodium phosphate/sodium bisphosphate (pH 7.04). Chymotrypsin (1:100 w/w), trypsin (1:100.7 w/w), elastase (1:200 w/w), and carboxypeptidase A (1:100 w/w) were then added to give a final reaction volume of 168 μL. The reaction mixture was incubated at 37° C. for the indicated time and then stopped by heating at 90° C. for 5 minutes. Alternatively, the peptide ([…]) was combined with rat intestinal brush border enzymes, where the final concentration of brush border aminopeptidase N was 100 μU/μL. The rat intestinal brush border was prepared as described (Ahnen et al., 1982) and the activity was measured by assaying continuously at 30° C. in 0.1 M Tris HCl, pH 8.0, containing 1 mM Leu-pNA [extinction coefficient at 410 nm (ε410)=8,800 M^−1/cm^−1] in 1% dimethyl sulfoxide to improve solubility. In some reactions prolyl endopeptidase was also added at a final concentration of 100 μU/μL. The reaction mixture was analyzed by reverse phase HPLC on a Vydac 218MS54 column (4.6 mm inner diameter×15 cm).
(§2) Digestive resistance of gliadin peptides and effect of PEP. The gliadin peptides P2-P8 (Table 1) were incubated with pepsin, trypsin, chymotrypsin, carboxypeptidase A, and elastase (PTCtCE) and purified rat intestinal brush border membranes (BBM) as previously detailed (Shan et al., 2002) to assess their resistance to digestion. […] Peptides P2, P3, P5 contain one or more epitopes from α-gliadin, whereas P7 and P8 carry γ-gliadin epitopes. P4 is believed to stimulate the innate immune system, and P6 has macrophage stimulating activity.

[2] = In vitro digestion of gliadin peptides with brush border membranes; format: in vitro ADME, rat
Protocol: as §1, §2

[3] = In vitro digestion with brush border membranes supplemented with PEP; format: in vitro ADME; conditions: rat, kidney or brush border membranes, BBM plus 100 μU/μL PEP, 37° C.
Protocol: as §1, with “The rat intestinal brush border was prepared as described (Ahnen et al., 1982) and the activity was measured by assaying continuously at 30° C. in 0.1 M Tris HCl, pH 8.0, containing 1 mM Leu-pNA [extinction coefficient at 410 nm (ε410)=8,800 M^−1/cm^−1] in 1% dimethyl sulfoxide to improve solubility. In some reactions prolyl endopeptidase was also added at a final concentration of 100 μU/μL.” left out
Given the stability of gliadin peptides to intestinal peptidases and initial results indicating PEP is active against α-gliadin epitopes, the efficacy of in vitro digestion with PEP was examined. To quantify the incremental effect of PEP, we incubated the gliadin peptides with purified brush border membranes, supplemented with 100 μU/μL of PEP for 1 or 4 hours at 37° C.

[4] = system: intact rat intestine co-perfused with prolyl endopeptidase (PEP); format: in vivo, Sprague-Dawley rats; conditions: co-perfused with 50 μM P5; ~190 μU/μL; ca. 1:5 weight ratio PEP:P5
Description: In vivo Rat Intestinal Perfusion. Our procedure for in vivo intestinal perfusion of peptides in rats was modified from the Smithson and Gray procedure as follows: Sprague-Dawley rats, 250-350 g were anesthetized with isoflurane, the abdomen opened, the ligament of Treitz (duodenal-jejunal junction) identified and polyethylene catheters [2.5 mm outer diameter×1 mm inner diameter] were installed with the proximal infusion catheter placed 5 cm beyond the ligament of Treitz and the collection catheter positioned 20 cm distally. Animal core temperature was monitored to be at 37° C. by rectal thermometer. Peptides for intra-intestinal perfusion were 1 mM GLGG, 0.1 mM P3, 0.1 mM P4, 0.1 mM P5, 0.1 mM P8, 0.1 mM P9, and 0.1 mM P10. […]
In a separate experiment, pepsin, trypsin and chymotrypsin digested gliadin (Sigma, St. Louis, Mo.) was perfused at 2 mg/mL along with 0.05 mM P5 and 41.7 […] PEP (˜190 μU/μL) to determine the effect of smaller, more accessible peptide fragments on P5 digestion. The perfusion effluent was collected, immediately frozen and subsequently analyzed by reverse phase HPLC on a Vydac 218MS54 column (4.6 mm inner diameter×15 cm). The rate of substrate disappearance for the peptides was calculated as previously detailed (Smithson and Gray, 1977). […]

In the case of FLQPQQPFPQQPQQPYPQQPQQPFPQ [Peptide P8], the metabolised at 4 h, 75 µM ([1]; 75 μM peptide, 37° C., 4 hr, NR = no reaction, read-out: percentage of parent material digested, PTCtCE 4 hr) is reported as 13%, the metabolised at 4 h, 75 µM ([2]; rat, kidney or brush border membranes, 75 μM peptide, aminopeptidase N 100 μU/μL, 4 hr, read-out: percentage of parent material digested, BBM 4 hr) is reported as 19% and the remaining at 4 h, 75 µM ([2]; rat, kidney or brush border membranes, 4 hours, read-out: starting material remaining after BBM exposure) is reported as roughly 70%. It also gave a metabolised at 1 h, 75 µM ([3]; 1 hr, read-out: percentage of parent material digested, BBM + PEP 1 hr) greater than 99% and a metabolised at 4 h, 75 µM ([3]; 4 hr, read-out: percentage of parent material digested, BBM + PEP 4 hr) greater than 99%.

“LGQQQPFPPQQPYPQPQPF [Peptide P4, LGQQQPFPPQQPYPQPQPF]” showed a metabolised at 1 h, 75 µM [2] of 77% and a metabolised at 4 h, 75 µM [2] of 98%.

“LQLQPFPQPQLPYPQPQLPYPQPQLPYPQPQPF [Peptide P5]” showed a metabolised at 4 h, 75 µM [1] of 10%, a metabolised at 1 h, 75 µM [2] of 20% and a metabolised at 4 h, 75 µM [2] of 28%. The remaining at 4 h, 75 µM ([2]; rat, kidney or brush border membranes) was roughly 70%.

In the case of QLQPFPQPQLPY [Peptide P2, QLQPFPQPQLPY], the metabolised at 4 h, 75 µM [1] is reported as 1%, the metabolised at 1 h, 75 µM [2] is reported as 71% and the metabolised at 4 h, 75 µM [2] is reported as 94%.

With “VSFQQPQQQYPSSQ [Peptide P6, VSFQQPQQQYPSSQ]” the metabolised at 4 h, 75 µM [1] was 48%, the metabolised at 1 h, 75 µM [2] was 97% and the metabolised at 4 h, 75 µM [2] was 99%.

B1: PEP: Flavobacterium meningosepticum prolyl endopeptidase, purchased or prepared from recombinant E. coli (protein, UniProt P27028 21-705, looked up)
Prolyl endopeptidase: QNSNVLKYPETKKVSHTDTYFGTQVSDPYRWLEDDRAEDTKAWVQQEVKFTQDYLAQIPFRDQLKKQLMDIWNYEKISAPFKKGKYTYFSKNDGLQAQSVLYRKDAAGKTEVFLDPNKFSEKGTTSLASVSFNKKGTLVAYSISEGGSDWNKIIILDAETKKQLDETLLDVKFSGISWLGDEGFFYSSYDKPKEGSVLSGMTDKHKVYFHKLGTKQSQDELIIGGDKFPRRYIGAYVTDDQRYLVVSAANATNGNELYIKDLKNKTDFIPIITGFDSNVNVADTDGDTLYLFTDKDAPNKRLVKTTIQNPKAETWKDVIAETSEPLEINTGGGYFFATYMKDAIDQVKQYDKNGKLVRAIKLPGSGNASGFGGEKTEKDLYYSFTNYITPPTIFKYNVTTGNSEVYQKPKVKFNPENYVSEQVFYTSSDGTKIPMMISYKKGLKKDGKNPTILYSYGGFNISLQPAFSVVNAIWMENGGIYAVPNIRGGGEYGKKWHDAGTKMQKKNVFNDFIAAGEYLQKNGYTSKEYMALSGRSNGGLLVGATMTMRPDLAKVAFPGVGVLDMLRYNKFTAGAGWAYDYGTAEDSKEMFEYLKSYSPVHNVKAGTCYPSTMVITSDHDDRVVPAHSFKFGSELQAKQSCKNPILIRIETNAGHGAGRSTEQVVAENADLLSFALYEMGIKSLK
With B1 the “amount of PEP required to eliminate P5 under the perfusion conditions” value [4] was 41.7 µg/mL.
